Assay results: US11452717B2, “Small molecule activators of nicotinamide phosphoribosyltransferase (NAMPT) and uses thereof” (Sanford Burnham Prebys Medical Discovery Institute, priority 2017, dated 2022)
pEC50: −log10 of the molar value.

target: NAMPT enzyme (Homo sapiens (Human), UniProt P43490); test: Enzyme Assay and NMN Detection (NAMPT reaction, fluorescence detection of NMN); type: biochemical; settings: Table B-1; NAMPT activation, NMN formation
Procedure, shortened: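 Reaction in 50 mM HEPES pH 7.5, 5 mM MgCl2, 0.1% Prionex, 0.005% Tween 20, 1 mM TCEP at room temperature, with 16 nM NAMPT, 120 uM ATP, 5 uM nicotinamide, 6.25 uM PRPP, 0.04 U/ml pyrophosphatase for 2 h. Stopped with acetophenone/KOH then formic acid; NMN quantified by fluorescence (ex380/em460) against calibration curve.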

Chain of NAMPT enzyme (P43490 whole entry, species assumed): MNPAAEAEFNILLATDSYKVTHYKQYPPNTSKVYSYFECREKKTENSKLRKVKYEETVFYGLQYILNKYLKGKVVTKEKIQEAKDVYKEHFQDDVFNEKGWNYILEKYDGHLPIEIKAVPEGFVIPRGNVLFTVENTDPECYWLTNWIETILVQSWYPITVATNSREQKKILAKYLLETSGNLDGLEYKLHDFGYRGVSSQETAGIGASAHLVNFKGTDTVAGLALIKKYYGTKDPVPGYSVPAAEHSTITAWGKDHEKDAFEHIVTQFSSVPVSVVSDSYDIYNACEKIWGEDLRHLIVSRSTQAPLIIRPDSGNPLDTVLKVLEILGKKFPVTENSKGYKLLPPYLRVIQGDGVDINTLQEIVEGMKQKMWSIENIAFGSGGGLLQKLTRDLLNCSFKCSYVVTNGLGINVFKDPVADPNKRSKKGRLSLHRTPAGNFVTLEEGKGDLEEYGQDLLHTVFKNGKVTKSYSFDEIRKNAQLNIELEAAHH

| Structure (SMILES) | pEC50 |
| --- | --- |
| O=C(NCc1cn[nH]c1)Nc1ccc(NS(=O)(=O)c2ccccc2)cc1 [N-{4-[3-(1H-Pyrazol-4-ylmethyl)-ureido]-phenyl}-benzenesulfonamide] | > 7.00 |

same assay, conditions: Table B-2; NAMPT activation, NMN formation

| Structure (SMILES) | pEC50 |
| --- | --- |
| Cc1ccc(N(C)C(=O)c2ccc(NC(=O)NCc3ccncc3)cc2)cc1 [N-methyl-4-(3-(pyridin-4-ylmethyl)ureido)-N-(p-tolyl)benzamide] | 4.70 to 5.30 |
| CN(c1ccc(NC(=O)NCc2ccncc2)cc1)S(=O)(=O)Cc1ccccc1 [N-methyl-C-phenyl-N-[4-(3-pyridin-4-ylmethyl-ureido)-phenyl]-methanesulfonamide] | > 7.00 |
| CCCN(C)C(=O)c1ccc(NC(=O)NCc2ccncc2)cc1 [N-methyl-N-propyl-4-(3-(pyridin-4-ylmethyl)ureido)benzamide] | 4.70 to 5.30 |
| CC(C)(C)CNS(=O)(=O)c1ccc(NC(=O)NCc2ccncc2)cc1 [N-neopentyl-4-(3-pyridin-4-ylmethyl-ureido)-benzenesulfonamide] | 5.70 to 7.00 |
| O=C(NCc1ccncc1)Nc1cccc(S(=O)(=O)NCCc2ccccc2)c1 [N-phenethyl-3-(3-(pyridin-4-ylmethyl)ureido)benzenesulfonamide] | < 4.70 |
| O=C(NCc1ccncc1)Nc1ccc(C(=O)NCCc2ccccc2)cc1 [N-phenethyl-4-(3-(pyridin-4-ylmethyl)ureido)benzamide] | 5.70 to 7.00 |
| O=C(NCc1ccncc1)Nc1ccc(C(=O)Nc2ccccc2)cc1 [N-phenyl-4-(3-(pyridin-4-ylmethyl)ureido)benzamide] | 5.30 to 5.70 |
| CCCNC(=O)c1ccc(NC(=O)NCc2ccncc2)cc1 [N-propyl-4-(3-(pyridin-4-ylmethyl)ureido)benzamide] | 5.30 to 5.70 |
| O=C(NCc1ccncc1)Nc1ccc(S(=O)(=O)N2CCc3cc(C(F)(F)F)ccc3C2)cc1 [Pyridin-4-ylmethyl-3-[4-(6-trifluoromethyl-3,4-dihydro-1H-isoquinoline-2-sulfonyl)-phenyl]-urea] | 5.70 to 7.00 |
| O=C(NCc1ccncc1)Nc1ccc(S(=O)(=O)N2CCc3cccc(C(F)(F)F)c3C2)cc1 [Pyridin-4-ylmethyl-3-[4-(8-trifluoromethyl-3,4-dihydro-1H-isoquinoline-2-sulfonyl)-phenyl]-urea] | 5.70 to 7.00 |
| O=C(NCc1ccncc1)Nc1ccc(S(=O)(=O)N2CCCC2)cc1 [Pyridin-4-ylmethyl-3-[4-(pyrrolidine-1-sulfonyl)-phenyl]-urea] | 5.70 to 7.00 |

same assay, conditions: Table B-6; NAMPT activation, NMN formation

| Structure (SMILES) | pEC50 |
| --- | --- |
| O=C(NCc1ccncc1)Nc1ccc(S(=O)(=O)c2nccs2)cc1 [Pyridin-4-ylmethyl-3-[4-(thiazole-2-sulfonyl)-phenyl]-urea] | 5.70 to 7.00 |

system: not given; test: not given; settings: adult mice, specific deletion of NAMPT; administration of the NAD precursor; cited from earlier work

| Structure (SMILES) | exercise performance, mass and strength of muscle |
| --- | --- |
| NC(=O)c1ccc[n+]([C@@H]2O[C@H](CO)[C@@H](O)[C@H]2O)c1 [nicotinamide riboside] | rapidly and uniformly restored |

system: human smooth muscle cells; test: not given; settings: serial quantification of the proportion of cells with senescence-associated beta-galactosidase activity; cited from earlier work

| Structure (SMILES) | senescence in smooth muscle cells |
| --- | --- |
| O=C(/C=C/c1cccnc1)NCCCCC1CCN(C(=O)c2ccccc2)CC1 [FK866] | induced premature senescence |
